Test: heat capacity at constant pressure per volume; xn = mol fraction of the nth substance listed
Settings: DSC

CC1CCCC(C)N1 (stereo not drawn) [2,6-dimethylpiperidine] + O
Liquid mixture 1, x1 = 0.055
Settings	heat capacity [J/K/m3]
264 K	4559000
264.47 K	4560000
264.95 K	4546000
265.42 K	4529000
265.9 K	4518000
266.37 K	4505000
266.84 K	4492000
267.32 K	4480000
267.79 K	4471000
268.26 K	4448000
268.74 K	4442000
269.21 K	4429000
269.68 K	4420000
270.16 K	4409000
270.63 K	4398000
271.1 K	4391000
271.58 K	4375000
272.05 K	4367000
272.52 K	4356000
273 K	4342000
273.47 K	4341000
273.94 K	4336000
274.42 K	4322000
274.89 K	4313000
275.36 K	4305000
275.84 K	4293000
276.31 K	4289000
276.78 K	4278000
277.25 K	4274000
277.73 K	4266000
278.2 K	4260000
278.68 K	4252000
279.15 K	4250000
279.62 K	4239000
280.1 K	4237000
280.57 K	4227000
281.04 K	4227000
281.51 K	4221000
281.99 K	4216000
282.46 K	4215000
282.94 K	4208000
283.41 K	4206000
283.88 K	4199000
284.36 K	4195000
284.83 K	4191000
285.3 K	4189000
285.77 K	4182000
286.25 K	4178000
286.72 K	4177000
287.19 K	4174000
287.67 K	4174000
288.14 K	4172000
288.61 K	4170000
289.09 K	4171000
289.56 K	4167000
290.03 K	4166000
290.51 K	4165000
290.98 K	4166000
291.45 K	4165000
291.93 K	4166000
292.6 K	4164000
292.81 K	4147000
293.02 K	4141000
293.23 K	4164000
293.45 K	4134000
293.66 K	4144000
293.87 K	4164000
294.08 K	4166000
294.3 K	4164000
294.51 K	4144000
294.72 K	4183000
294.93 K	4155000
295.14 K	4142000
295.36 K	4144000
295.57 K	4153000
295.78 K	4178000
295.99 K	4155000
296.2 K	4175000
296.42 K	4213000
296.63 K	4189000
296.84 K	4188000
297.06 K	4228000
297.27 K	4210000
297.48 K	4217000
297.69 K	4232000
297.9 K	4249000
298.12 K	4247000
298.33 K	4277000
298.54 K	4280000
298.75 K	4295000
298.96 K	4312000
299.18 K	4375000
299.39 K	4534000

102.6 kPa, Liquid, x1 = 0.055
Settings	heat capacity [J/K/m3]
299.6 K	5314000
299.81 K	5077000
300.03 K	5010000
300.24 K	4873000
300.45 K	4815000
300.66 K	4801000
300.88 K	4772000
301.09 K	4785000
301.3 K	4742000
301.51 K	4632000
301.73 K	4641000
301.94 K	4672000
302.15 K	4625000
302.36 K	4675000
302.57 K	4597000
302.79 K	4600000
303 K	4544000
303.21 K	4578000
303.42 K	4592000
303.64 K	4555000
303.85 K	4564000
304.06 K	4532000
304.27 K	4520000
304.49 K	4530000
304.7 K	4519000
304.91 K	4468000
305.12 K	4514000
305.33 K	4463000
305.55 K	4423000
305.76 K	4443000

CC1CCCC(C)N1 (stereo not drawn) [2,6-dimethylpiperidine] + [2H]O[2H]
Liquid mixture 1, x1 = 0.054
Settings	heat capacity [J/K/m3]
270.36 K	4851000
270.67 K	4851000
270.98 K	4850000
271.3 K	4843000
271.61 K	4841000
271.92 K	4831000
272.23 K	4822000
272.54 K	4813000
272.85 K	4803000
273.16 K	4797000
273.47 K	4793000
273.78 K	4785000
274.1 K	4778000
274.41 K	4775000
274.72 K	4768000
275.03 K	4764000
275.34 K	4752000
275.65 K	4755000
275.96 K	4749000
276.27 K	4742000
276.58 K	4732000
276.89 K	4728000
277.21 K	4720000
277.52 K	4717000
277.83 K	4706000
278.14 K	4700000
278.45 K	4697000
278.76 K	4694000
279.07 K	4693000
279.38 K	4689000
279.69 K	4685000
280 K	4677000
280.32 K	4675000
280.63 K	4668000
280.94 K	4667000
281.25 K	4661000
281.56 K	4654000
281.87 K	4654000
282.18 K	4653000
282.49 K	4642000
282.8 K	4640000
283.12 K	4641000
283.43 K	4645000
283.74 K	4645000
284.05 K	4638000
284.36 K	4635000
284.67 K	4627000
284.98 K	4628000
285.29 K	4633000
285.6 K	4630000
285.91 K	4623000
286.23 K	4610000
286.54 K	4617000
286.85 K	4623000
287.16 K	4612000
287.47 K	4611000
287.78 K	4609000
288.09 K	4606000
288.6 K	4566000
288.82 K	4558000
289.05 K	4578000
289.28 K	4580000
289.51 K	4581000
289.74 K	4539000
289.96 K	4559000
290.19 K	4609000
290.42 K	4604000
290.65 K	4587000
290.88 K	4581000
291.11 K	4554000
291.33 K	4556000
291.56 K	4590000
291.79 K	4592000
292.02 K	4589000
292.25 K	4578000
292.48 K	4643000
292.71 K	4602000
292.94 K	4606000
293.16 K	4623000
293.39 K	4660000
293.62 K	4615000
293.85 K	4629000
294.08 K	4700000
294.31 K	4655000
294.53 K	4669000
294.76 K	4707000
294.99 K	4644000
295.22 K	4708000
295.45 K	4694000
295.68 K	4733000
295.9 K	4759000
296.13 K	4861000
296.36 K	5146000

102.6 kPa, Liquid, x1 = 0.054
Settings	heat capacity [J/K/m3]
296.59 K	5567000
296.82 K	5424000
297.05 K	5334000
297.28 K	5260000
297.5 K	5164000
297.73 K	5179000
297.96 K	5136000
298.19 K	5070000
298.42 K	5083000
298.65 K	5094000
298.88 K	5093000
299.1 K	5111000
299.33 K	5023000
299.56 K	5049000
299.79 K	5063000
300.02 K	5028000
300.25 K	5015000
300.48 K	5009000
300.7 K	4961000
300.93 K	4977000
301.16 K	4985000
301.39 K	4958000
301.62 K	4957000
301.85 K	4945000
302.07 K	4916000
302.3 K	4889000
302.53 K	4922000

Cc1cccc(C)n1 [2,6-dimethylpyridine] + O
Liquid mixture 1, x1 = 0.066
Settings	heat capacity [J/K/m3]
270.67 K	3943000
271.17 K	3939000
271.67 K	3932000
272.17 K	3933000
272.67 K	3929000
273.17 K	3934000
273.67 K	3928000
274.17 K	3930000
274.67 K	3924000
275.17 K	3925000
275.67 K	3922000
276.17 K	3920000
276.67 K	3918000
277.17 K	3918000
277.67 K	3919000
278.17 K	3918000
278.67 K	3916000
279.17 K	3913000
279.67 K	3916000
280.17 K	3914000
280.67 K	3914000
281.18 K	3913000
281.68 K	3910000
282.18 K	3910000
282.68 K	3907000
283.18 K	3907000
283.68 K	3904000
284.18 K	3907000
284.68 K	3905000
285.18 K	3909000
285.68 K	3905000
286.18 K	3903000
286.68 K	3907000
287.18 K	3907000
287.68 K	3910000
288.18 K	3913000
288.68 K	3913000
289.18 K	3912000
289.68 K	3912000
290.18 K	3910000
290.68 K	3913000
291.18 K	3912000
291.68 K	3913000
292.18 K	3916000
292.68 K	3917000
293.18 K	3915000
293.68 K	3911000
294.18 K	3914000
294.68 K	3914000
295.18 K	3913000
295.68 K	3912000
296.18 K	3913000
296.68 K	3912000
297.18 K	3914000
297.69 K	3914000
298.19 K	3918000
298.69 K	3919000
299.19 K	3916000
299.78 K	3918000
299.99 K	3916000
300.2 K	3912000
300.41 K	3920000
300.62 K	3927000
300.84 K	3944000
301.05 K	3932000
301.26 K	3930000
301.47 K	3942000
301.69 K	3950000
301.9 K	3947000
302.11 K	3945000
302.32 K	3932000
302.54 K	3934000
302.75 K	3933000
302.96 K	3962000
303.17 K	3969000
303.38 K	3938000
303.6 K	3938000
303.81 K	3935000
304.02 K	3948000
304.23 K	3973000
304.44 K	3963000
304.66 K	3960000
304.87 K	3953000
305.08 K	3960000
305.29 K	3975000
305.51 K	3976000
305.72 K	3956000
305.93 K	4006000
306.14 K	4011000
306.36 K	4082000
306.57 K	4075000

102.6 kPa, Liquid, x1 = 0.066
Settings	heat capacity [J/K/m3]
306.78 K	4520000
306.99 K	4372000
307.2 K	4347000
307.42 K	4321000
307.63 K	4254000
307.84 K	4227000
308.05 K	4182000
308.27 K	4223000
308.48 K	4199000
308.69 K	4189000
308.9 K	4170000
309.12 K	4188000
309.33 K	4206000
309.54 K	4165000
309.75 K	4175000
309.96 K	4206000
310.18 K	4189000
310.39 K	4172000
310.6 K	4170000
310.81 K	4154000
311.03 K	4103000
311.24 K	4121000
311.45 K	4142000
311.66 K	4101000
311.88 K	4141000
312.09 K	4083000
312.3 K	4117000
312.51 K	4078000
312.73 K	4100000
